Among the test systems are 786-0 renal; BT-549 breast; CCRF-CEM leukemia; EKVX NSCLC; K-562 leukemia; KM12 colon; PC-3 prostate; SF-295 CNS; SF-539 CNS.
Test in all cases: inhibition of tumour cell growth, NCI panel, 48 h

Several values for one entry are separate records, joined by “and”; a condition that tells them apart may be missing. Equal values may be shown once.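 Five concentrations, 48 hours, 96-well plates. GI50 marks 50% less growth. TGI: total growth inhibition.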

As for `O=C1NCN(c2ccccc2)C12CCN(CCCN1CCN(CCOC(c3ccc(F)cc3)c3ccc(F)cc3)CC1)CC2`, the TGI in the experiment with 786-0 renal is 3.2 µM; in the experiment on BT-549 breast, 5.44 µM; in the experiment on CCRF-CEM leukemia, over 100 µM; in the experiment on EKVX NSCLC it was 9.81 µM; in the experiment with K-562 leukemia, 10.5 µM; in the experiment with KM12 colon, 6.09 µM. In addition, the TGI in the experiment with PC-3 prostate came to 10.9 µM; in the experiment with SF-295 CNS, 3.38 µM; with SF-539 CNS, 3.26 µM.

Take `O=C1c2ccccc2NC(=S)[C@@H]2CCCN12`: the TGI in the experiment with 786-0 renal, with BT-549 breast, with CCRF-CEM leukemia, in the experiment with EKVX NSCLC, in the experiment on K-562 leukemia and with KM12 colon was over 100 µM in each case. Besides, the TGI in the experiment on PC-3 prostate, with SF-295 CNS and in the experiment with SF-539 CNS was over 100 µM throughout.

On to `C=C(CN(C)C)C(=O)c1ccccc1[N+](=O)[O-]`, for which the TGI in the experiment on 786-0 renal was 27 µM; in the experiment with BT-549 breast, 30.6 µM and 60.4 µM; in the experiment on CCRF-CEM leukemia, 8.06 µM; in the experiment on EKVX NSCLC, > 59.3 µM and 49 µM; in the experiment with K-562 leukemia, 27.7 µM and 12.9 µM; in the experiment with KM12 colon, 46.1 µM and 37.5 µM. The TGI in the experiment on PC-3 prostate is 31.3 µM and 13.5 µM; with SF-295 CNS, 50.7 µM and 32.9 µM; with SF-539 CNS, 71.4 µM and 40.4 µM. Besides, the GI50 in the experiment on BT-549 breast is 24.3 µM; in the experiment with CCRF-CEM leukemia it was 2.7 µM and 2.18 µM; in the experiment with EKVX NSCLC, 23 µM; in the experiment on K-562 leukemia, 3.38 µM; in the experiment with KM12 colon it was 15.6 µM; with SF-295 CNS it was 17.7 µM. Further, the GI50 with SF-539 CNS is 18.6 µM.

For `CCOC(=O)C1CCC(=O)N1C(=O)c1ccccc1` (configuration not stated), the TGI with 786-0 renal, in the experiment on BT-549 breast, in the experiment with CCRF-CEM leukemia, in the experiment on EKVX NSCLC, in the experiment with K-562 leukemia and in the experiment with KM12 colon was over 100 µM each time. Also, the TGI in the experiment on PC-3 prostate, in the experiment on SF-295 CNS and in the experiment on SF-539 CNS was over 100 µM each time.

`COC(=O)[C@H](Cc1ccccc1)NC(=O)CCCCCCC(=O)NO`: the TGI with 786-0 renal, in the experiment with BT-549 breast, with CCRF-CEM leukemia, in the experiment with EKVX NSCLC, in the experiment with K-562 leukemia and in the experiment on KM12 colon was over 100 µM in each case. For the same compound, the TGI was 38.2 µM in the experiment on PC-3 prostate, 44.6 µM in the experiment with SF-295 CNS and over 100 µM with SF-539 CNS.

In the case of `CCOP(=O)(/C=C\n1ccc(N)nc1=O)OCC`, the TGI in the experiment on 786-0 renal, with BT-549 breast, in the experiment on CCRF-CEM leukemia, with EKVX NSCLC, in the experiment on K-562 leukemia and with KM12 colon was over 100 µM in each case. The TGI in the experiment on PC-3 prostate, with SF-295 CNS and in the experiment on SF-539 CNS was over 100 µM each time.

Consider `CCOC(=O)C#Cc1ccccc1`, for which the TGI in the experiment with 786-0 renal came to 21.5 µM; with BT-549 breast, 79.5 µM; in the experiment with CCRF-CEM leukemia it was 12.4 µM; with EKVX NSCLC, 10.9 µM; with K-562 leukemia it was 8.91 µM; in the experiment on KM12 colon, 31.2 µM. Besides, the TGI was determined as 31.3 µM in the experiment on PC-3 prostate, 30.2 µM with SF-295 CNS and 19.3 µM in the experiment with SF-539 CNS.

For `COc1cc(NC(C)=O)ccc1C(=O)NN1C(=O)/C(=C/c2ccco2)N=C1c1ccccc1`, the TGI in the experiment on 786-0 renal was over 50 µM; in the experiment on BT-549 breast it was over 50 µM; with CCRF-CEM leukemia, 31.1 µM; with EKVX NSCLC it was over 50 µM; with K-562 leukemia, over 50 µM; with PC-3 prostate it was over 50 µM. In addition, the TGI with SF-295 CNS and in the experiment on SF-539 CNS was over 50 µM in each case.

For `Nc1nn2c(=O)c3ccccc3nc2s1`, the TGI with 786-0 renal was over 100 µM; with BT-549 breast it was 77.9 µM; with CCRF-CEM leukemia, 46.9 µM; in the experiment with EKVX NSCLC, over 100 µM; in the experiment on K-562 leukemia, 88.7 µM; in the experiment with KM12 colon, over 100 µM. The TGI with PC-3 prostate, in the experiment with SF-295 CNS and in the experiment with SF-539 CNS was over 100 µM in each case.

With `CC(C)(C)c1cc(C(=O)/C=C/c2ccc3c(c2)OCO3)cc(C(C)(C)C)c1O`, the TGI with 786-0 renal was 21 µM; in the experiment on BT-549 breast it was 27.2 µM; in the experiment with CCRF-CEM leukemia it was 16.3 µM; with EKVX NSCLC it was over 100 µM; in the experiment on K-562 leukemia it was over 39.1 µM; in the experiment with KM12 colon, 22.7 µM. Also, the figures for the TGI with PC-3 prostate, with SF-295 CNS and in the experiment on SF-539 CNS were 21.8 µM, over 31.2 µM and 20 µM, respectively.

For `O=c1cc(-c2ccccc2)oc2c(-c3cc(Cl)cc4c(=O)cc(-c5ccccc5)oc34)cc(Cl)cc12`, the TGI in the experiment on 786-0 renal is over 100 µM; in the experiment with BT-549 breast, over 100 µM; in the experiment on CCRF-CEM leukemia, 54.6 µM; in the experiment on EKVX NSCLC it was over 100 µM; with K-562 leukemia, over 100 µM; with KM12 colon, over 100 µM. The TGI in the experiment on PC-3 prostate was over 100 µM; with SF-295 CNS, over 100 µM; in the experiment on SF-539 CNS it was 44.4 µM.

As to `S=c1cc(-c2ccc3c(c2)OCO3)s[nH]1`, the TGI in the experiment on 786-0 renal, in the experiment on BT-549 breast, in the experiment on CCRF-CEM leukemia, with EKVX NSCLC, with K-562 leukemia and with KM12 colon was over 100 µM each time. In addition, the TGI in the experiment with PC-3 prostate, in the experiment on SF-295 CNS and in the experiment on SF-539 CNS was over 100 µM each time.

For the compound `CC(=O)c1ccc2c(c1)CC1(C2)Cc2ccccc2C1=O` (configuration not stated), the TGI in the experiment with 786-0 renal, in the experiment with BT-549 breast, in the experiment on CCRF-CEM leukemia, with EKVX NSCLC, in the experiment with K-562 leukemia and in the experiment on KM12 colon was over 100 µM each time. Further, the TGI in the experiment with PC-3 prostate, in the experiment with SF-295 CNS and with SF-539 CNS was over 100 µM in each case.

Consider `[O-]/[N+](=C\c1ccccc1OC(=S)S)c1ccc(Cl)cc1`, for which the TGI in the experiment with 786-0 renal was 50.3 µM; in the experiment on BT-549 breast, over 100 µM; in the experiment with CCRF-CEM leukemia it was over 100 µM; with EKVX NSCLC, over 100 µM; with K-562 leukemia it was over 100 µM; in the experiment on KM12 colon, over 100 µM. For the same compound, the TGI in the experiment with PC-3 prostate, in the experiment on SF-295 CNS and in the experiment with SF-539 CNS was over 100 µM in each case.

The values are drawn from PubChem BioAssay (NCI).
